From patent publication US9963461B2, “Phillygenin ibuprofen ester, preparation method therefor, and application thereof” (priority 2014, dated 2018)
Marks after values point to notes of the source that are not given here.

Columns and labels:
[1] = tested on: sweat secretion of rat paw part; assay: Sweat secretion of rat paw part (coloring method); format: in vivo, Wistar rats; settings: for Animal number of sweat points of level +: + = sweat area below about 10%; for Animal number of sweat points of level ++: ++ = sweat area about 11-40%; for Animal number of sweat points of level +++: +++ = sweat area about 41-70%; for Animal number of sweat points of level ++++: ++++ = sweat area over 71%; for Animal number of sweat points of level −: − = no sweat point
Description: This test was designed to observe the change of sweat secretion based on the mechanism that sweat gland is distributed on the rat paw pads, and iodine and starch can have purple reaction when encountered with sweat. In the test, 350 Wistar rats were selected, with equal male and female number, weighing 120-150 g. […] The rats were placed in a self-made rat fixation bag, with the double hind limbs exposed. The dirts on the right paw was gently scrubbed clean with the cotton swab dipped with anhydrous ethanol. Besides that subcutaneous injection was used for the pilocarpine solution, intragastric administration was used for all the other groups. […] When the test was complete, statistical process was carried out according to the rank-sum test with two-sample comparison, in order to compare the difference between the groups.

[2] = tested on: Herpes Simplex Virus type I (HSV-1); assay: Impact of the drugs on the virus-induced cytopathy (MTT); format: cell-based; settings: HSV-I 100 TCID50, Vero cells, about the maximal non-cytotoxic concentration, 72 hours
[3] = tested on: Coxsackie virus A16 (CoxA16); assay: as above; format: cell-based; settings: CoxA16 100 TCID50, Vero cells, about the maximal non-cytotoxic concentration, 72 hours
[4] = tested on: beer yeast induced rat fever; assay: Beer yeast induced rat fever; format: in vivo, Wistar rats
Experimental: Male Wistar rats were selected, weighing 180-200 g. Before the test, WSC-411P portable digital thermometer was used to measure the normal rectal temperature twice (with certain interval for each time), and the average value of the two measurements was taken as the normal body temperature of the rat. Then 70 rats with the body temperature between 36.5° C. and 38° C. were chosen to be randomly divided into 7 groups by weight: the model (0.5% carboxymethylcellulose) group, the 2.5, 5, and 10 mg/kg phillygenin ibuprofen ester groups, the positive drug paracetamol (100 mg/kg) group, the ibuprofen group (i.e. prodrug control group, 300 mg/kg), the phillygenin group (100 mg/kg), with 10 rats for each group. Each group of rats were subjected to back subcutaneous injection with 10% fresh beer yeast suspension of 10 ml/kg to induce heat. After administration of 10% fresh beer yeast suspension for 6.0 h, phillygenin ibuprofen ester and paracetamol were both subjected to intragastric administration, and the model group was intragastrically administrated with equal volume of 0.5% carboxymethylcellulose. Rectal temperature was measured after 1 h, 2 h, 3 h and 4 h of the administration respectively. Changes in the body temperature were observed and difference between the groups was compared by inter-group t test processing through antipyretic percentage.

Adenovirus (AdV) = assay: Impact of the drugs on the virus-induced cytopathy (MTT); format: cell-based; settings: ADV 100 TCID50, Vero cells, about the maximal non-cytotoxic concentration, 72 hours
Enterovirus EV71 = assay: as above; format: cell-based; settings: EV71 100 TCID50, Vero cells, about the maximal non-cytotoxic concentration, 72 hours
[5] = tested on: coxsackie virus B3 (CVB3); assay: as above; format: cell-based; settings: CVB3 100 TCID50, Vero cells, about the maximal non-cytotoxic concentration, 72 hours
[6] = tested on: respiratory syncytial virus (RSV); assay: as above; format: cell-based; settings: RSV 100 TCID50, Vero cells, about the maximal non-cytotoxic concentration, 72 hours
[7] = after coating B liquid for 1 minute, 2.5 mg/kg intragastric
[8] = after coating B liquid for 1 minute, 5.0 mg/kg intragastric
[9] = after coating B liquid for 1 minute, 10.0 mg/kg intragastric
[10] = after coating B liquid for 5 minutes, 2.5 mg/kg intragastric
[11] = after coating B liquid for 5 minutes, 5.0 mg/kg intragastric
[12] = after coating B liquid for 5 minutes, 10.0 mg/kg intragastric
[13] = after coating B liquid for 10 minutes, 2.5 mg/kg intragastric
[14] = after coating B liquid for 10 minutes, 5.0 mg/kg intragastric
[15] = after coating B liquid for 10 minutes, 10.0 mg/kg intragastric
[16] = after coating B liquid for 15 minutes (Table 2-4), 2.5 mg/kg intragastric
[17] = after coating B liquid for 15 minutes (Table 2-4), 5.0 mg/kg intragastric
[18] = after coating B liquid for 15 minutes (Table 2-4), 10.0 mg/kg intragastric
[19] = after coating B liquid for 15 minutes (Table 2-5), 2.5 mg/kg intragastric
[20] = after coating B liquid for 15 minutes (Table 2-5), 5.0 mg/kg intragastric
[21] = after coating B liquid for 15 minutes (Table 2-5), 10.0 mg/kg intragastric
[22] = 2.5 mg/kg, 1 h after administration
[23] = 2.5 mg/kg, 2 h after administration
[24] = 2.5 mg/kg, 3 h after administration
[25] = 2.5 mg/kg, 4 h after administration
[26] = 5.0 mg/kg, 1 h after administration
[27] = 5.0 mg/kg, 2 h after administration
[28] = 5.0 mg/kg, 3 h after administration
[29] = 5.0 mg/kg, 4 h after administration
[30] = 10.0 mg/kg, 1 h after administration
[31] = 10.0 mg/kg, 3 h after administration
[32] = 10.0 mg/kg, 4 h after administration

COc1ccc([C@H]2OCC3C2CO[C@H]3c2ccc(OC)c(OC(=O)C(C)c3ccc(CC(C)C)cc3)c2)cc1OC (stereo partly shown) [Phillygenin ibuprofen ester, phillygenin ibuprofen ester]
effect on the sweat secretion of rat paw part vs control group ([1]; 10 mg/kg, after coating B liquid for 5, 10, 15 and 20 min, P<0.05): obvious promoting effect
Animal number of sweat points of level + [1, 7]: 2
Animal number of sweat points of level ++ [1, 7]: 3
Animal number of sweat points of level +++ [1, 7]: 3
Animal number of sweat points of level ++++ [1, 7]: 2
Animal number of sweat points of level − [1, 7]: 0
Animal number of sweat points of level + [1, 8]: 1
Animal number of sweat points of level ++ [1, 8]: 2
Animal number of sweat points of level +++ [1, 8]: 3
Animal number of sweat points of level ++++ [1, 8]: 4
Animal number of sweat points of level − [1, 8]: 0
Animal number of sweat points of level + [1, 9]: 1
Animal number of sweat points of level ++ [1, 9]: 3
Animal number of sweat points of level +++ [1, 9]: 1
Animal number of sweat points of level ++++ [1, 9]: 5
Animal number of sweat points of level − [1, 9]: 0
Animal number of sweat points of level + [1, 10]: 1
Animal number of sweat points of level ++ [1, 10]: 3
Animal number of sweat points of level +++ [1, 10]: 3
Animal number of sweat points of level ++++ [1, 10]: 3
Animal number of sweat points of level − [1, 10]: 0
Animal number of sweat points of level + [1, 11]: 1
Animal number of sweat points of level ++ [1, 11]: 4
Animal number of sweat points of level +++ [1, 11]: 1
Animal number of sweat points of level ++++ [1, 11]: 5
Animal number of sweat points of level − [1, 11]: 0
Animal number of sweat points of level + [1, 12]: 0
Animal number of sweat points of level ++ [1, 12]: 3
Animal number of sweat points of level +++ [1, 12]: 2
Animal number of sweat points of level ++++ [1, 12]: 5
Animal number of sweat points of level − [1, 12]: 0
Animal number of sweat points of level + [1, 13]: 1
Animal number of sweat points of level ++ [1, 13]: 2
Animal number of sweat points of level +++ [1, 13]: 3
Animal number of sweat points of level ++++ [1, 13]: 4
Animal number of sweat points of level − [1, 13]: 0
Animal number of sweat points of level + [1, 14]: 0
Animal number of sweat points of level ++ [1, 14]: 3
Animal number of sweat points of level +++ [1, 14]: 2
Animal number of sweat points of level ++++ [1, 14]: 5
Animal number of sweat points of level − [1, 14]: 0
Animal number of sweat points of level + [1, 15]: 0
Animal number of sweat points of level ++ [1, 15]: 2
Animal number of sweat points of level +++ [1, 15]: 3
Animal number of sweat points of level ++++ [1, 15]: 5
Animal number of sweat points of level − [1, 15]: 0
Animal number of sweat points of level + [1, 16]: 1
Animal number of sweat points of level ++ [1, 16]: 3
Animal number of sweat points of level +++ [1, 16]: 1
Animal number of sweat points of level ++++ [1, 16]: 5
Animal number of sweat points of level − [1, 16]: 0
Animal number of sweat points of level + [1, 17]: 0
Animal number of sweat points of level ++ [1, 17]: 2
Animal number of sweat points of level +++ [1, 17]: 3
Animal number of sweat points of level ++++ [1, 17]: 5
Animal number of sweat points of level − [1, 17]: 0
Animal number of sweat points of level + [1, 18]: 0
Animal number of sweat points of level ++ [1, 18]: 1
Animal number of sweat points of level +++ [1, 18]: 4
Animal number of sweat points of level ++++ [1, 18]: 5
Animal number of sweat points of level − [1, 18]: 0
Animal number of sweat points of level + [1, 19]: 0
Animal number of sweat points of level ++ [1, 19]: 2
Animal number of sweat points of level +++ [1, 19]: 3
Animal number of sweat points of level ++++ [1, 19]: 5
Animal number of sweat points of level − [1, 19]: 0
Animal number of sweat points of level + [1, 20]: 0
Animal number of sweat points of level ++ [1, 20]: 1
Animal number of sweat points of level +++ [1, 20]: 4
Animal number of sweat points of level ++++ [1, 20]: 5
Animal number of sweat points of level − [1, 20]: 0
Animal number of sweat points of level + [1, 21]: 0
Animal number of sweat points of level ++ [1, 21]: 0
Animal number of sweat points of level +++ [1, 21]: 5
Animal number of sweat points of level ++++ [1, 21]: 5
Animal number of sweat points of level − [1, 21]: 0
antiviral effective rate (ER %) [2]: 99.80**^# %
antiviral effective rate (ER %) [3]: 75.89**^## %
Body temperature (° C.) [4, 22]: 38.93 ± 0.43 °C
antipyretic percentage (%) [4, 22]: −1.01 ± 1.05 %
Body temperature (° C.) [4, 23]: 38.75 ± 0.43 °C
antipyretic percentage (%) [4, 23]: −1.48 ± 1.11 %
Body temperature (° C.) [4, 24]: 38.56 ± 0.52 °C
antipyretic percentage (%) [4, 24]: −1.97 ± 1.67 %
Body temperature (° C.) [4, 25]: 38.25 ± 0.58 °C
antipyretic percentage (%) [4, 25]: −2.47 ± 1.80 %
Body temperature (° C.) [4, 26]: 38.48 ± 0.59 °C
antipyretic percentage (%) [4, 26]: −1.91 ± 0.40 %
Body temperature (° C.) [4, 27]: 38.33 ± 0.50 °C
antipyretic percentage (%) [4, 27]: −2.29 ± 0.54**^Δ▴▴ %
Body temperature (° C.) [4, 28]: 37.85 ± 0.33 °C
antipyretic percentage (%) [4, 28]: −3.52 ± 0.38***^Δ▴ %
Body temperature (° C.) [4, 29]: 37.67 ± 0.45 °C
antipyretic percentage (%) [4, 29]: −3.98 ± 0.52***^Δ▴▴ %
Body temperature (° C.) [4, 30]: 38.61 ± 0.51 °C
antipyretic percentage (%) [4, 30]: −2.10 ± 0.53**^Δ▴▴ %
Body temperature (° C.) ([4]; 10.0 mg/kg, 2 h after administration): 39.13 ± 0.45 °C
Body temperature (° C.) [4, 31]: 37.8 ± 0.40 °C
antipyretic percentage (%) [4, 31]: −4.01 ± 1.12***^Δ▴▴ %
Body temperature (° C.) [4, 32]: 37.74 ± 0.31 °C
antipyretic percentage (%) [4, 32]: −4.30 ± 1.26***^Δ▴▴ %
effect on the rat fever induced by beer yeast suspension vs model group ([4]; medium and high dose groups (5, 10 mg/kg), 1 h, 2 h, 3 h and 4 h after administration): significant cooling effects
antiviral effective rate (ER %) (Adenovirus (AdV)): 75.90**^## %
antiviral effective rate (ER %) (Enterovirus EV71): 99.81**^## %
antiviral effective rate (ER %) [5]: 75.83**^## %
antiviral effective rate (ER %) [6]: 87.74**^# %
